Data taken from ChEMBL document CHEMBL1201862, “PubChem BioAssay data set” (2004).
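Values below derive from 48-hour exposures of cells grown in 96-well plates, with endpoints linearly interpolated between the two concentrations bracketing the appropriate inhibition level. GI50 = concentration required for 50% inhibition of growth.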 Calls of active or inactive are those of the source. Cut-off read from the data, not from the text of the source: active = GI50 up to about 1.1 µM and inactive = higher.

Assays:
Test in all cases: NCI anticancer screen, dose series, 48 h
[1] = tested on: HOP-92
[2] = tested on: T47D
[3] = tested on: OVCAR-8
[4] = tested on: SF-268
[5] = tested on: UO-31
[6] = tested on: HCT-15
[7] = tested on: NCI-H23
[8] = tested on: KM12
[9] = tested on: A549
[10] = tested on: A498
[11] = tested on: CAKI-1
[12] = tested on: HT-29
[13] = tested on: RXF 393
[14] = tested on: SF-295
[15] = tested on: OVCAR-3
[16] = tested on: HL-60
[17] = tested on: HOP-62
[18] = tested on: EKVX
[19] = tested on: IGROV-1

Row | Compound | GI50 [1] | GI50 [2] | GI50 [3] | GI50 [4] | GI50 [5] | GI50 [6] [µM] | GI50 [7] | GI50 [8] | GI50 [9] | GI50 [10] | GI50 [11] | GI50 [12] | GI50 [13] | GI50 [14] | GI50 [15] | GI50 [16] | GI50 [17] | GI50 [18] | GI50 [19]
1 | COc1cc(OC)cc(-n2c(N)c(C#N)c3ccc([N+](=O)[O-])cc3c2=O)c1 | 19.1 µM (inactive) | 33.7 µM (inactive) | 18.7 µM (inactive) | 32.4 µM (inactive) | 19.5 µM (inactive) | > 100 | 36.4 µM (inactive) | > 100 µM (inactive) | 43.4 µM (inactive) | 20 µM (inactive) | 30.8 µM (inactive) | > 100 µM (inactive) | – | – | – | – | – | – | –
2 | C/C=C/C=C\C(=O)C1c2cccc(O)c2C(=O)c2c(O)cc(C)cc21 (configuration not stated) | 1.39 µM (inactive) | – | 1.81 µM (inactive) | 0.705 µM (active) | 1.71 µM (inactive) | 1.76 | 1.76 µM (inactive) | 0.425 µM (active) | 0.719 µM (active) | 2.74 µM (inactive) | 2.08 µM (inactive) | 2.06 µM (inactive) | 1.37 µM (inactive) | 0.957 µM (active) | 1.02 µM (active) | 0.294 µM (active) | 2.04 µM (inactive) | 3.38 µM (inactive) | 1.57 µM (inactive)
3 | COC1C(OC(N)=O)C(O)C(Oc2ccc3c(O)c(NC(=O)c4ccc(O)c(CC=C(C)C)c4)c(=O)oc3c2C)OC1(C)C (configuration not stated) | – | > 100 µM (inactive) | > 100 µM (inactive) | > 100 µM (inactive) | > 100 µM (inactive) | 60.5 | – | 63 µM (inactive) | > 100 µM (inactive) | > 100 µM (inactive) | > 100 µM (inactive) | > 100 µM (inactive) | > 100 µM (inactive) | – | > 100 µM (inactive) | – | > 100 µM (inactive) | > 100 µM (inactive) | > 100 µM (inactive)
4 | CC(=O)N1C(C(=O)NC2CCCCC2)CSC1c1ccccc1 (configuration not stated) | 68.2 µM (inactive) | – | > 100 µM (inactive) | > 100 µM (inactive) | > 100 µM (inactive) | > 100 | > 100 µM (inactive) | > 100 µM (inactive) | > 100 µM (inactive) | > 100 µM (inactive) | > 100 µM (inactive) | > 100 µM (inactive) | – | > 100 µM (inactive) | > 100 µM (inactive) | > 100 µM (inactive) | > 100 µM (inactive) | > 100 µM (inactive) | > 100 µM (inactive)
5 | CN(C)CCNC(=O)c1cccc2c(NC(CS)C(=O)O)c3ccccc3[n+](C)c12 (configuration not stated) | – | 64.9 µM (inactive) | 56.8 µM (inactive) | 23.6 µM (inactive) | 71.8 µM (inactive) | > 100 | 89.5 µM (inactive) | > 100 µM (inactive) | 62.1 µM (inactive) | 77.4 µM (inactive) | – | 99.3 µM (inactive) | – | > 100 µM (inactive) | 81.3 µM (inactive) | – | 60.8 µM (inactive) | 56.9 µM (inactive) | 43.8 µM (inactive)
6 | Cc1ccc(C2CC(=O)CC(c3ccc(C)cc3)C23C(=O)NC(=O)NC3=O)cc1 (configuration not stated) | > 100 µM (inactive) | > 100 µM (inactive) | > 100 µM (inactive) | > 100 µM (inactive) | > 100 µM (inactive) | > 100 | > 100 µM (inactive) | > 100 µM (inactive) | – | – | > 100 µM (inactive) | > 100 µM (inactive) | > 100 µM (inactive) | > 100 µM (inactive) | > 100 µM (inactive) | > 10 µM (inactive) | 28.9 µM (inactive) | > 100 µM (inactive) | > 100 µM (inactive)
7 | O=C1OC[C@@H]2Cc3cc4c(cc3[C@H](c3ccc5c(c3)OCO5)[C@@H]12)OCO4 | – | – | > 25 µM (inactive) | – | 15.6 µM (inactive) | 11 | > 25 µM (inactive) | > 25 µM (inactive) | > 25 µM (inactive) | – | > 25 µM (inactive) | 24.1 µM (inactive) | – | 24.7 µM (inactive) | > 25 µM (inactive) | 10.6 µM (inactive) | 24.7 µM (inactive) | > 25 µM (inactive) | –
8 | O=Cc1ccccc1B(O)O | – | 0.0147 µM (active) | 67.8 µM (inactive) | > 100 µM (inactive) | 54.1 µM (inactive) | 62.7 | – | > 100 µM (inactive) | 12.7 µM (inactive) | – | 47.5 µM (inactive) | 18.9 µM (inactive) | 15.7 µM (inactive) | > 100 µM (inactive) | 33.6 µM (inactive) | 22 µM (inactive) | > 100 µM (inactive) | < 0.01 µM (active) | 29.6 µM (inactive)
9 | COc1ccc(C2=C(N)c3ccccc3C2=O)cc1 | 27.9 µM (inactive) | > 100 µM (inactive) | 37.8 µM (inactive) | 33.7 µM (inactive) | – | > 100 | 39.5 µM (inactive) | > 100 µM (inactive) | > 100 µM (inactive) | 81.8 µM (inactive) | > 100 µM (inactive) | > 100 µM (inactive) | – | 37.3 µM (inactive) | > 100 µM (inactive) | > 100 µM (inactive) | 31.2 µM (inactive) | > 100 µM (inactive) | 89.7 µM (inactive)
10 | CC(Nc1cc(Cl)cc(Cl)c1)c1ccncc1 (configuration not stated) | – | 7.85 µM (inactive) | 18.5 µM (inactive) | 17.9 µM (inactive) | 13.3 µM (inactive) | 29.1 | 23.9 µM (inactive) | – | 27.8 µM (inactive) | 23.3 µM (inactive) | 17.2 µM (inactive) | 27.7 µM (inactive) | 20.7 µM (inactive) | 18.5 µM (inactive) | 16.6 µM (inactive) | – | 15.8 µM (inactive) | 22.4 µM (inactive) | 15.4 µM (inactive)
11 | O=C(O)c1c[nH]c2c(Sc3ccccc3)nccc2c1=O | > 100 µM (inactive) | > 100 µM (inactive) | > 100 µM (inactive) | > 100 µM (inactive) | > 100 µM (inactive) | > 100 | > 100 µM (inactive) | 39.9 µM (inactive) | > 100 µM (inactive) | > 100 µM (inactive) | > 100 µM (inactive) | > 100 µM (inactive) | – | > 100 µM (inactive) | > 100 µM (inactive) | 78.7 µM (inactive) | > 100 µM (inactive) | 70.3 µM (inactive) | > 100 µM (inactive)
12 | SC1=NC2=C(CSC/C2=C\c2ccc(Cl)cc2)C(c2ccc(Cl)cc2)N1 (configuration not stated) | 29.5 µM (inactive) | 28.6 µM (inactive) | 39.2 µM (inactive) | 75.7 µM (inactive) | 32.4 µM (inactive) | 34 | 46.9 µM (inactive) | 25.9 µM (inactive) | 34.4 µM (inactive) | – | 42.3 µM (inactive) | 29.6 µM (inactive) | – | 42.2 µM (inactive) | 41.2 µM (inactive) | 24.7 µM (inactive) | 36 µM (inactive) | 38 µM (inactive) | 51.8 µM (inactive)
13 | CCOC(=O)/C(=C\NC(C)(C)CO)c1nc2ccccc2[nH]1 | 77.4 µM (inactive) | – | 74.8 µM (inactive) | 81.5 µM (inactive) | 0.426 µM (active) | 81.7 | 67.8 µM (inactive) | 75 µM (inactive) | 86.5 µM (inactive) | 54.6 µM (inactive) | > 100 µM (inactive) | 88.7 µM (inactive) | > 100 µM (inactive) | 64.6 µM (inactive) | > 100 µM (inactive) | 44.5 µM (inactive) | > 100 µM (inactive) | > 100 µM (inactive) | 41.5 µM (inactive)
14 | CCCCCCCCNC(=O)C1=C(C)NC(C)=C(C(=O)NCCCCCCCC)C1 | > 100 µM (inactive) | 48.2 µM (inactive) | > 100 µM (inactive) | > 100 µM (inactive) | 77.6 µM (inactive) | > 100 | > 100 µM (inactive) | > 100 µM (inactive) | > 100 µM (inactive) | – | > 100 µM (inactive) | 82.8 µM (inactive) | > 100 µM (inactive) | > 100 µM (inactive) | > 100 µM (inactive) | > 100 µM (inactive) | > 100 µM (inactive) | > 100 µM (inactive) | > 100 µM (inactive)
15 | O=[N+]([O-])c1cc2ccc1OCc1cccc(n1)COc1ccc(cc1[N+](=O)[O-])/C=N\CCCCCCCC/N=C\2 | > 100 µM (inactive) | – | > 100 µM (inactive) | > 100 µM (inactive) | > 100 µM (inactive) | > 100 | > 100 µM (inactive) | > 100 µM (inactive) | > 100 µM (inactive) | > 100 µM (inactive) | > 100 µM (inactive) | > 100 µM (inactive) | – | > 100 µM (inactive) | > 100 µM (inactive) | – | > 100 µM (inactive) | > 100 µM (inactive) | > 100 µM (inactive)
16 | CCCCNC(=S)Nc1nc(C(=O)NNS(=O)(=O)c2ccccc2)cs1 | 64.7 µM (inactive) | 71.8 µM (inactive) | 33.7 µM (inactive) | 27.8 µM (inactive) | 26.1 µM (inactive) | 36.2 | 44 µM (inactive) | 39.7 µM (inactive) | 40.3 µM (inactive) | 45.2 µM (inactive) | 27.7 µM (inactive) | > 10 µM (inactive) | – | 36.2 µM (inactive) | 24.2 µM (inactive) | – | 36.4 µM (inactive) | 31.6 µM (inactive) | 24.9 µM (inactive)
17 | CCOP(=O)(OCC)/C(C#N)=C/c1cn(C)cn1 | > 100 µM (inactive) | – | > 100 µM (inactive) | > 100 µM (inactive) | > 100 µM (inactive) | > 100 | > 100 µM (inactive) | > 100 µM (inactive) | > 100 µM (inactive) | > 100 µM (inactive) | > 100 µM (inactive) | > 100 µM (inactive) | > 100 µM (inactive) | > 100 µM (inactive) | > 100 µM (inactive) | – | > 100 µM (inactive) | > 100 µM (inactive) | > 100 µM (inactive)
